Test: Compatibility test of API and auxiliary materials: relevant substances (impurities) by HPLC
Type: physicochemical
Details: for Change of relevant substance (in words): 30 days
Procedure: 4. Using HPLC method to detect the content of the sample and relevant substances.
The parameters of the HPLC method for the detection of the content and relevant substances are detailed in Table 2 below.
Placing the samples under experimental conditions of high temperature (60° C.), high humidity (92.5% RH), acceleration (40° C./75% RH) and illumination (visible light 5500 Lux±500 Lux, near ultraviolet light 85 μw/cm2), […] Submitting the samples for relevant indicator testing (test items include appearance, hygroscopic weight gain, content and relevant substances), and comparing the test results with the control samples (raw material).

% Impurities RRT0.46 (60° C., opened, 30 d): <0.05%
% Impurities RRT0.89 (60° C., opened, 30 d): 0.07%
% Impurities RRT1.16 (60° C., opened, 30 d): 0.87%
% Impurities RRT1.20 (60° C., opened, 30 d): 0.06%
% Impurities RRT1.29 (60° C., opened, 30 d): 0.18%
% Impurities RRT1.33 (60° C., opened, 30 d): 0.07%
% Impurities RRT1.37 (60° C., opened, 30 d): 0.06%
% Impurities RRT1.41 (60° C., opened, 30 d): <0.05%
% Impurities RRT1.73 (60° C., opened, 30 d): <0.05%
% Impurities RRT1.74 (60° C., opened, 30 d): 0.09%
% Impurities Total (60° C., opened, 30 d): 1.40%
% Impurities RRT0.46 (92.5% RH, opened, 0 d): <0.05%
% Impurities RRT0.89 (92.5% RH, opened, 0 d): 0.08%
% Impurities RRT1.10 (92.5% RH, opened, 0 d): <0.05%
% Impurities RRT1.16 (92.5% RH, opened, 0 d): 0.88%
% Impurities RRT1.20 (92.5% RH, opened, 0 d): 0.09%
% Impurities RRT1.24 (92.5% RH, opened, 0 d): <0.05%
% Impurities RRT1.29 (92.5% RH, opened, 0 d): 0.14%
% Impurities RRT1.33 (92.5% RH, opened, 0 d): 0.10%
% Impurities RRT1.37 (92.5% RH, opened, 0 d): 0.07%
% Impurities RRT1.41 (92.5% RH, opened, 0 d): <0.05%
% Impurities RRT1.43 (92.5% RH, opened, 0 d): <0.05%
% Impurities RRT1.73 (92.5% RH, opened, 0 d): <0.05%
% Impurities RRT1.74 (92.5% RH, opened, 0 d): 0.05%
% Impurities Total (92.5% RH, opened, 0 d): 1.41%
% Impurities RRT0.37 (92.5% RH, opened, 10 d): <0.05%
% Impurities RRT0.46 (92.5% RH, opened, 10 d): 0.10%
% Impurities RRT0.89 (92.5% RH, opened, 10 d): 0.14%
% Impurities RRT1.10 (92.5% RH, opened, 10 d): <0.05%
% Impurities RRT1.16 (92.5% RH, opened, 10 d): 1.63%
% Impurities RRT1.20 (92.5% RH, opened, 10 d): 0.07%
% Impurities RRT1.21 (92.5% RH, opened, 10 d): <0.05%
% Impurities RRT1.24 (92.5% RH, opened, 10 d): <0.05%
% Impurities RRT1.29 (92.5% RH, opened, 10 d): 0.12%
% Impurities RRT1.33 (92.5% RH, opened, 10 d): 0.08%
% Impurities RRT1.37 (92.5% RH, opened, 10 d): 0.07%
% Impurities RRT1.41 (92.5% RH, opened, 10 d): 0.10%
% Impurities RRT1.43 (92.5% RH, opened, 10 d): <0.05%
% Impurities RRT1.54 (92.5% RH, opened, 10 d): 0.06%
% Impurities RRT1.64 (92.5% RH, opened, 10 d): 0.13%
% Impurities RRT1.70 (92.5% RH, opened, 10 d): <0.05%
% Impurities RRT1.73 (92.5% RH, opened, 10 d): 0.41%
% Impurities RRT1.74 (92.5% RH, opened, 10 d): 0.08%
% Impurities Total (92.5% RH, opened, 10 d): 2.99%
% Impurities RRT0.37 (92.5% RH, opened, 30 d): <0.05%
% Impurities RRT0.46 (92.5% RH, opened, 30 d): 0.17%
% Impurities RRT0.89 (92.5% RH, opened, 30 d): 0.12%
% Impurities RRT1.10 (92.5% RH, opened, 30 d): <0.05%
% Impurities RRT1.16 (92.5% RH, opened, 30 d): 1.65%
% Impurities RRT1.20 (92.5% RH, opened, 30 d): 0.06%
% Impurities RRT1.24 (92.5% RH, opened, 30 d): 0.05%
% Impurities RRT1.29 (92.5% RH, opened, 30 d): 0.07%
% Impurities RRT1.33 (92.5% RH, opened, 30 d): 0.08%
% Impurities RRT1.37 (92.5% RH, opened, 30 d): 0.08%
% Impurities RRT1.41 (92.5% RH, opened, 30 d): 0.09%
% Impurities RRT1.43 (92.5% RH, opened, 30 d): 0.05%
% Impurities RRT1.54 (92.5% RH, opened, 30 d): <0.05%
% Impurities RRT1.64 (92.5% RH, opened, 30 d): 0.21%
% Impurities RRT1.70 (92.5% RH, opened, 30 d): 0.05%
% Impurities RRT1.73 (92.5% RH, opened, 30 d): 0.53%
% Impurities RRT1.74 (92.5% RH, opened, 30 d): 0.10%
% Impurities Total (92.5% RH, opened, 30 d): 3.31%
% Impurities RRT0.46 (Illumination, opened, 0 d): <0.05%
% Impurities RRT0.89 (Illumination, opened, 0 d): 0.08%
% Impurities RRT1.16 (Illumination, opened, 0 d): 0.88%
% Impurities RRT1.20 (Illumination, opened, 0 d): 0.09%
% Impurities RRT1.29 (Illumination, opened, 0 d): 0.14%
% Impurities RRT1.33 (Illumination, opened, 0 d): 0.10%
% Impurities RRT1.37 (Illumination, opened, 0 d): 0.07%
% Impurities RRT1.41 (Illumination, opened, 0 d): <0.05%
% Impurities RRT1.73 (Illumination, opened, 0 d): <0.05%
% Impurities RRT1.74 (Illumination, opened, 0 d): 0.05%
% Impurities Total (Illumination, opened, 0 d): 1.41%
% Impurities RRT0.46 (Illumination, opened, 10 d): 0.06%
% Impurities RRT0.89 (Illumination, opened, 10 d): 0.17%
% Impurities RRT1.16 (Illumination, opened, 10 d): 0.91%
% Impurities RRT1.20 (Illumination, opened, 10 d): 0.08%
% Impurities RRT1.29 (Illumination, opened, 10 d): 0.20%
% Impurities RRT1.33 (Illumination, opened, 10 d): 0.09%
% Impurities RRT1.37 (Illumination, opened, 10 d): 0.07%
% Impurities RRT1.41 (Illumination, opened, 10 d): <0.05%
% Impurities RRT1.73 (Illumination, opened, 10 d): 0.05%
% Impurities RRT1.74 (Illumination, opened, 10 d): 0.07%
% Impurities Total (Illumination, opened, 10 d): 1.70%
SMILES: O=C(O)C[S+]([O-])c1cc(NS(=O)(=O)c2ccc(Br)cc2)c2ccccc2c1O (stereo not shown) [API]
Change of relevant substance (in words) (acceleration 40° C./75% RH, opened): increased significantly at RRT0.46, RRT1.16, RRT1.63 and RRT1.73, and increased slightly at RRT1.41 and RRT1.43
Stability of API (summary) (compatibility test of raw and auxiliary materials): unstable under the conditions of high humidity, illumination and acceleration
Change of relevant substance (in words) (high humidity 92.5% RH, opened): increased significantly at RRT0.46, RRT1.16, RRT1.64 and RRT1.73, and increased slightly at RRT1.41 and RRT1.74
Change of relevant substance (in words) (illumination, opened): increased slightly at RRT 0.89 and RRT 1.29

Source: patent US20260216108A1, “PHARMACEUTICAL COMPOSITION CONTAINING A MITOPHAGY INDUCER” (HANGZHOU PHECDAMED CO., LTD., priority 2023, published 2026)
